# Entries after “also recorded” stand apart in the source; their conditions may differ.
# Assays:
# [1] = test system: IL-6, IL-8 and CXCL1 secretion; assay: ELISA of cytokine secretion; assay type: cell-based
# Protocol: IL-6, IL-8 and CXCL1 levels were assessed using ELISA assay kit (Boster Bio, Pleasanton, Calif.). Supernates of the mammosphere formation assay were collected after 10 days in culture. 1:50 dilution was performed on the supernates before quantifying the amount of cytokines according to the manufacturer's protocol. For cytokine antibody array, supernates collected from the NS or shIRAK1 MB436 mammospheres after 10 days in culture were used directly without further dilution. Semi-quantitative detection of 120 human cytokines and chemokines in the supernates were performed using the RayBio® C-series Human Cytokine Antibody Array C1000 (RayBiotech, Inc., Norcross, GS, Cat no.: #AAH-CYT-1000-2) as per manufacturer's instructions. Detection of dots was performed with the ChemiDoc™ MP Imaging Systems (Bio-Rad, Hercules, Calif.) and the intensity of dots were quantified by densitometric analysis using the ImageJ software. The raw numerical densitometry data is extracted and subjected to background subtraction before normalizing the signal for each cytokines against the Positive Control signals in each cytokine array.
# [2] = test system: BT549, MB436, MB468, MDA231 and MDA231-LM2 cells; assay: Mammosphere formation assay; assay type: cell-based; conditions: for mammosphere growth: 5 μM IRAK-inh; for mammosphere forming capacity after Paclitaxel pretreatment: MDA231 cells, 10 nM Paclitaxel 4 days, remaining viable cells
# Protocol: Active growing cells were treated with 0.05% trypsin for 10 minutes then passed through […] cell strainer to achieve single cell suspension. Cells were plated (MDA231: 1×10^4; MB436: 3×10^4; MB468: 4×10^4 cells/well, BT549: 3×10^4, MDA231-LM2: 3×10^4) seeded in 6-well ultra-low attachment plates (Corning, Corning, N.Y., cat: CLS3471) in Mammocult medium (Stem cell Technologies, Vancouver, BC, Canada), supplemented with fresh hydrocortisone (0.51 μg/ml) and heparin (1:500). Tumorspheres were cultured for 7 days prior to being counted and photographed. Imaging and quantification were done using GelCount™ apparatus and associated software (Oxford Optronix, Abingdon, UK). For serial passages of tumorsphere formation assay, the spheres were collected by gentle centrifugation, dissociated to single cells for passaging tumorspheres every 14 days and counted. Tumorspheres were photographed and quantified 7-12 days later using a GelCount Colony Counter after staining with INT.
# [3] = test system: SUM159-PR and MDA231-PR cells; assay: Apoptosis by FACS analysis of Sub-G1 cells; assay type: cell-based; conditions: Paclitaxel-resistant cells
# Protocol: Cell cycle analysis was done by DNA content quantification to quantify the sub-G1 population which is reflective of the extent of cell death. Briefly, the cells were fixed with 70% ethanol and stained with propidium iodide (50 μg/ml) staining. The stained cells were analyzed by FACScalibur (BD Bioscience) and quantified by using CellQuest software (BD bioscience).
# [4] = test system: MDA231-LM2 cells; assay: Mammary fat pad MDA231-LM2 xenograft, lung metastasis by bioluminescence imaging; assay type: in vivo, NOD/SCID mice; conditions: for lung metastasis: IRAK-inh 4 mg/kg, qd, ip, 14 days, started 7 days before primary tumor removal
# [5] = test system: MDA231 and SUM159 parental and Paclitaxel-resistant sublines (PR); assay: Cell viability of parental and Paclitaxel-resistant sublines, combination treatment; assay type: cell-based
# Protocol: (§1) For cell proliferation assay, the optimal cell seeding was first determined empirically for all cell lines by examining the growth of a wide range of seeding densities in a 96-well format to identify conditions that permitted proliferation for 7 days. Cells were then plated at the optimal seeding density 24 h before siRNA or drug treatment in triplicate. Plates were incubated for 7 days at 37° C. in 5% CO2. Cells were then lysed with CellTiter-Glo (CTG) (Promega, Madison, Wis.) and chemiluminescent signal was detected with a microplate reader on Day 0, 1, 3, 5 and 7. In addition, an untreated plate of cells was harvested at the time of drug or siRNA addition (T0) to quantify the starting number of cells. CTG values obtained after the 7 day treatment were expressed as percentages of the T0 value and plotted against time of treatment.
# [6] = biological target: IRAK1 (Homo sapiens, UniProt P51617); conditions: recently shown in Myelodysplastic Syndrome (ref 20); cited from earlier work
# [7] = test system: BT549, MB436, MB468, MDA231 and MDA231-LM2 cells; assay: 3D Matrigel growth of TNBC cells; assay type: cell-based; conditions: 5 μM IRAK-inh
# Protocol: 8-well chamber slides (Falcon, cat: 354656, Falcon) were precoated with 7.6 mg/mL growth factor-reduced Matrigel (Falcon, cat: 354230, Falcon) for 30 min at 37° C. Approximately 5×10^3 for MDA231, 1×10^4 for MB436 and MB468, 1.5×10^4 cells for BT549 with indicated treatments were seeded in each well with DMEM containing 10% (vol/vol) FBS and 150 μg/mL Matrigel. Medium were replenished every 3 days and cell growth was monitored every 3 days by imaging over duration of 10-14 days.
# [8] = biological target: T1, p-IRAK1 (T209) (Homo sapiens, UniProt P51617); assay: Western blot of p-IRAK1 in immunoprecipitated IRAK1; assay type: cell-based; conditions: for induction of p-IRAK1 by chemotherapeutic agent: MDA231 (also SUM159) cells, PTX 5 nM, ADR 2 μM, Cisplatin 5 μM, up to 48 hours
# T1 construct: The whole cell lysate were extracted with the NE-PER kit (Pierce Biotechnology) and subjected to immunoprecipitation using 2 μg total-IRAK1 antibody; endogenous in cells; host or cells: TNBC cell lines (BT549, MB436, MB468, MDA231, MDA231-LM2, SUM159 and paclitaxel-resistant sublines)
# Protocol: (§2) Western Blotting was performed as described previously (8). IRAK1 (Cat no: #4359), IRAK4 (Cat no.: 4363), cleaved PARP (Cat no.: #9541), p38 MAPK (Cat no.: #9212), phospho-p38 MAPK (T180/Y182) (Cat no.: #9211), phospho-NF-KappaB p65 (S536) (Cat no. #3031) were purchased from Cell Signaling (Danvers, Mass.). Phospho-IRAK1 (T209) antibody was purchased from Assay Biotech (Sunnyvale, Calif., Cat no.: A1074) and phospho-IRAK1 (S376) antibody from Genetex (Irvine, Calif., Cat no.: GTX50994). MCL-1 antibody was purchased from Santa Cruz Biotechnology (Santa Cruz, Calif., Cat no.: sc-819). Actin was purchased from Sigma-Aldrich (St Louis, Mo., Cat no.: A5441). Detection of bands was performed with the ChemiDoc™ MP Imaging Systems (Bio-Rad, Hercules, Calif.) and bands were subjected to further densitometric analysis with Image Lab software (Version 4.1, Bio-rad, Hercules, Calif.).
# Co-IP was performed as described previously (9). The whole cell lysate were extracted with the NE-PER kit (Pierce Biotechnology) and subjected to immunoprecipitation using 2 μg total-IRAK1 antibody (Santa Cruz Biotech, Santa Cruz, Calif., Cat no.: sc-7883). The precipitated protein complex was captured using protein A-Agarose beads (Roche) and extensively washed with the washing buffer (50 mM Tris-HCl, 150 mM NaCl, 0.1% triton). The precipitated proteins were dissolved in SDS sample buffer along with 3 mM DTT, and subjected to immunoblotting analysis. Phospho-IRAK1 (T209) (Assay Biotechnology, Sunnyvale, Calif., Cat no.: A1074) was used for detection.
# [9] = test system: p38-MCL-1 signaling in SUM159-PR cells; assay: Western blot of p-p38, MCL-1 and cleaved PARP; assay type: cell-based; conditions: inhibitor with Paclitaxel
# Protocol: as §2
# [10] = test system: non-cancerous MCF10A and HMLE cells; assay: 3D Matrigel growth of non-cancerous cells; assay type: cell-based; conditions: 5 uM IRAK-inh, one week
# [11] = test system: MDA231-PR cells; assay: Cell viability IC50 curves, sensitivity of paclitaxel-resistant cells to agents; assay type: cell-based
# Description: FIG. 17. (a). IC50 curves showing cell viability after treatment with paclitaxel (PTX), vincristine (VCR), gemcitabine, doxorubicin (ADR), cisplatin, 5-fluorouracil (5-FU) and pacritinib in parental and pacitaxel-treated MDA-MB-231 (MDA231-PR) cells. (b). Graphical representation of relative sensitivities. (c).
# as §1
# [12] = test system: IL1B, IL6 and IL8 mRNAs in MDA231 cells; assay: qRT-PCR of cytokine mRNAs after chemotherapy; assay type: cell-based; conditions: 5 nM PTX, VCR 3 days
# Protocol: Total RNA was isolated by using Qiazol (Life technologies, Carlsbad, Calif.) and purified with the RNeasy Mini Kit (Qiagen, Valencia, Calif.). Reverse transcription and quantitative PCR assays were performed using High Capacity cDNA Archive kit and KAPA SyBr Fast qPCR kit (KAPA Biosystems, Wilmington, Mass.). For quantification of mRNA levels, 18S level was used as an internal control. All reactions were analyzed in an Applied Biosystems PRISM 7500 Fast Real-Time PCR system in 96-well plate format.
# [13] = test system: SUM159PT; assay: Paclitaxel EC50 in parental SUM159PT cells; assay type: cell-based; conditions: Homo sapiens, SUM-159-PT, read-out: intrinsic EC50 to Paclitaxel
# Protocol: (§3) To establish the Paclitaxel acquired resistant TNBC cell lines, both SUM159PT and MDA231 cells were used. […] During these treatment cycles, only cells with a high intrinsic resistance or those which had acquired resistance to the drug survived. The cycle was further repeated until the stable resistant cell line (SUM159PR or MDA231PR) SUM159PR cells were stably maintained in 1 μM Paclitaxel and MDA231 in 75 nM of Paclitaxel with complete medium, making them at least ˜1000-fold more resistant than their parental cell lines.
# as §1
# [14] = test system: ALDH-positive cell population; assay: ALDEFLUOR assay; assay type: cell-based; conditions: after paclitaxel treatment
# Protocol: ALLEFLUOR assay was performed using the manufacturer's recommended protocol (ALDEFLUOR kit, Stemcell Technologies; catalogue number: #01700). In brief, one million single-cell suspensions were centrifuged and resuspended in ALDEFLUOR assay buffer supplied in the kit. Each sample cells were incubated with or without an ALDH-specific inhibitor 15 mM diethylaminobenzaldehyde in the presence of 0.15 mM ALDH substrate. ALDEFLUOR stainings were detected using fluorescein isothiocyanate channel of a FACSCalibur Flow Cytometry System (BD Biosciences) after 25 min incubation at 37° C. Diethylaminobenzaldehyde inhibitor control sample was used as sorting gate reflecting background fluorescence levels for each cell lines.
# [15] = test system: SUM159PR or MDA231PR; assay: Acquired Paclitaxel resistance of stepwise-selected resistant sublines; assay type: cell-based; conditions: SUM159PR kept in 1 μM, MDA231PR in 75 nM Paclitaxel
# Protocol: as §3
# T1 sequence (P51617 whole entry): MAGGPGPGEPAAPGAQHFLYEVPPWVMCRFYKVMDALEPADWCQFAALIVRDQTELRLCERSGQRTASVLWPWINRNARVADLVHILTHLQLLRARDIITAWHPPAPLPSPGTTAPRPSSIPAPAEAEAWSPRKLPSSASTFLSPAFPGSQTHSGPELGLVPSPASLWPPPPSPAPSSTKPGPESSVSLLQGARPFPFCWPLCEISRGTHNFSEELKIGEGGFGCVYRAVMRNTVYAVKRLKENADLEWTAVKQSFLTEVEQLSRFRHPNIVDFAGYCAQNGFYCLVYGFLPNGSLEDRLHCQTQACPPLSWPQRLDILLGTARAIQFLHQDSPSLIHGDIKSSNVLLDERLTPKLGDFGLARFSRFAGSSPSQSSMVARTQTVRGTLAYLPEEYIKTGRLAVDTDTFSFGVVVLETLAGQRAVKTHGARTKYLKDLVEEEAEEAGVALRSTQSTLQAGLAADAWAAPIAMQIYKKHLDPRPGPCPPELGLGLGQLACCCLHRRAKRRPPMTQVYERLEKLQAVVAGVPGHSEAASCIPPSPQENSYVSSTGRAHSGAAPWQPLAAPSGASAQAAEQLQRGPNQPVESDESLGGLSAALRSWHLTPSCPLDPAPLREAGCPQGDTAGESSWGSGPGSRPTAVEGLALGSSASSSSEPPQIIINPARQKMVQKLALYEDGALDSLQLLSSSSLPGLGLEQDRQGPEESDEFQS
# IRAK1, sequence (P51617 whole entry, species assumed): as the sequence (P51617 whole entry) above
compound,measurement,setting,value
O=C(Nc1nc2ccccc2n1CCN1CCOCC1)c1cccc([N+](=O)[O-])c1 [IRAK-inh],IL-8 and CXCL1 secretion,"[1]; IRAK-inh-sensitive TNBC cells, 5 μM IRAK-inh",strong reduction
same,"secretion of IL-6, IL-8 and CXCL1","[1]; Paclitaxel-resistant cells, IRAK1-inh plus Paclitaxel",reduced secretion
same,mammosphere growth,"[2]; BT549, MB436 and MB468 cells",marked inhibition
same,mammosphere growth,"[2]; MDA231-LM2 cells, 7 days",impaired
same,"apoptosis, combined with Paclitaxel",[3],massive apoptosis
same,lung metastasis,[4]; listed as IRAK1-inh,markedly reduced
same,lung metastasis,[4]; listed as IRAK1-inn,effectively blocked
same,survival of mice carrying TNBC metastasis,[4]; IRAK-inh treatment,extended the survival
same,"cell viability, combined with sub-toxic Paclitaxel","[5]; both Paclitaxel-resistant cell lines (MDA231-PR, SUM159-PR), 5 μM IRAK-inh",dramatic loss of cell viability
same,cell death in combination with paclitaxel,"[5]; paclitaxel-resistant MDA231 cells, IRAK-inh 5 μM",dramatic cell death
same,"cell viability, inhibitor on its own","[5]; paclitaxel-resistant MDA231 cells, IRAK-inh 5 μM alone",no effect
same,activity against IRAK1,[6],potent activity against IRAK1
same,3D Matrigel growth,"[7]; BT549, MB436 and MB468 cells",marked inhibition
same,3D Matrigel growth,"[7]; MDA231-LM2 cells, 7 days",impaired
same,p-IRAK1 in TNBC cells,[8]; IRAK-inh 5 μM,effectively abolished the p-IRAK1
same,IL-1β-induced p-IRAK1,"[8]; MB436 cells, recombinant IL-1β, IRAK-inh 5 uM",abrogated
same,PARP cleavage,[9],increased PARP cleavage
same,p-p38 and MCL-1 expression,[9],decrease
same,3D Matrigel growth / morphology,[10],no effect
CC(=O)O[C@H]1C(=O)[C@@]2(C)[C@H]([C@H](OC(=O)c3ccccc3)[C@]3(O)C[C@H](OC(=O)[C@H](O)[C@@H](NC(=O)c4ccccc4)c4ccccc4)C(C)=C1C3(C)C)[C@]1(OC(C)=O)CO[C@@H]1C[C@@H]2O [Paclitaxel],shift of the IC50 curve,[11]; MDA231-PR versus parental MDA-MB-231,marked right shift
same,sensitivity of paclitaxel-resistant cells to agent,[11]; paclitaxel-treated/resistant cells over-expressing p-IRAK1,markedly resistant; also recorded: no longer susceptible; also recorded: no longer responsive
same,mammosphere forming capacity after Paclitaxel pretreatment,[2],increased mammosphere forming capacity
same,mammosphere forming capacity after Paclitaxel pretreatment,[2]; listed as paclitaxel,potentiated mammosphere formation
same,"expression of IL1B, IL6 and IL8 mRNAs",[12],induced
same,EC50,[13],3.88 nM
same,induction of p-IRAK1 by chemotherapeutic agent,[8],marked induction
same,induction of p-IRAK1 by chemotherapeutic agent,[8]; listed as paclitaxel,marked induction
same,IRAK1 signaling activated by chemotherapeutic agents,[8]; discussion statement,activated
same,ALDH-positive cell population,[14],expansion of the ALDH-positive cell population
same,fold more resistant than parental cell lines,[15],≥ 1000 fold
